{"source": "paper PMC6413118", "about": "“Active Components, Antioxidant, Inhibition on Metabolic Syndrome Related Enzymes, and Monthly Variations in Mature Leaf Hawk Tea” (Molecules, 2019)", "target": "T1, porcine pancreatic lipase (Sus scrofa, UniProt P00591)", "T1 construct": "gene PNLIP; EC printed is that of carboxylesterase", "T1 sequence (P00591 1-450)": "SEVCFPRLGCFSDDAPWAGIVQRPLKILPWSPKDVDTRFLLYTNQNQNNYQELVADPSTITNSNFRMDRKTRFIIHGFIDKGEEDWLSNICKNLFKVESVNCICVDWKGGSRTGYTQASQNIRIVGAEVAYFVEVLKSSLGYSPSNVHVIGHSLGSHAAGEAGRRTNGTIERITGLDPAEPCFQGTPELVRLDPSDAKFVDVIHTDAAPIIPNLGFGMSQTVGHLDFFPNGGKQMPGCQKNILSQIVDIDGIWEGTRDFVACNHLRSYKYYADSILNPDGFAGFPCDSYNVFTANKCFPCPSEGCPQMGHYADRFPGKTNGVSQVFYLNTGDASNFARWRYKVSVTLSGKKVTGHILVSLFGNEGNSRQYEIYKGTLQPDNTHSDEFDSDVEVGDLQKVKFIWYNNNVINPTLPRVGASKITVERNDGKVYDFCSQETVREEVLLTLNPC", "test": "p-nitrophenyl palmitate hydrolysis, absorbance […] nm, microplate", "type": "biochemical", "details": "10 mM p-nitrophenyl palmitate stock (20 μL), 0.1 M sodium phosphate pH 7, 37 °C, 20 min; unreliable: table and text disagree tenfold"}
{"smiles": "CCCCCCCCCCC[C@@H](C[C@@H]1OC(=O)[C@H]1CCCCCC)OC(=O)[C@H](CC(C)C)NC=O", "note": "[Orlistat]", "values": [{"measurement": "Lipase IC50", "result": 0.6, "unit": "µg/mL"}]}
